The values that follow come from ChEMBL document CHEMBL1201862, “PubChem BioAssay data set” (2004).

What is called GI50 is the concentration giving 50% growth inhibition.

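How tested: cells in 96-well plates exposed to compound for 48 hours at five concentrations. GI50: concentration for 50% inhibition of growth.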 Active and inactive are the calls of the source. Cut-off read from the data, not from the text of the source: active = GI50 up to about 1.1 µM and inactive = higher.

Common to all, as to assay: DTP human tumour cell line panel, 48 h
Test [1] deals with 786-0.
In test [2] the test system is HCC 2998.
The test system of test [3] is HCT-116.
Test [4] has as its system HL-60.
Test [5] relates to HOP-62.
Test [6] concerns IGROV-1.
In test [7] the test system is KM12.
Test [8] relates to LOX IMVI.
For test [9], the system named is MDA-N.
Test [10] relates to Malme-3M.
In test [11] the test system is NCI-H460.
In test [12] the test system is OVCAR-4.
Test [13] relates to RPMI-8226.
Test [14] deals with RXF 393.
For test [15], the system named is SF-295.
Test [16] relates to SN12C.
In test [17] the test system is TK-10.
Test [18] concerns UACC-257.
Test [19] concerns UO-31.
Test [20] concerns U-251.

Take `O=S(=O)(c1ccc(/N=C2\NC(c3ccc(O)cc3)(c3ccccc3O)c3ccccc32)cc1)c1ccc(/N=C2/NC(c3ccc(O)cc3)(c3ccccc3O)c3ccccc32)cc1` (stereo not drawn): the GI50 in test [1] is 3.02 µM (inactive); in test [2], 4.63 µM (inactive); in test [3], 2.23 µM (inactive); in [4] it was 1.02 µM (active); in [5], 5.28 µM (inactive); in [6], 2.68 µM (inactive). The GI50 in test [7] is 2.48 µM (inactive); in test [8] it was 2.96 µM (inactive); in test [9], 2.99 µM (inactive); in [10] it was 2.32 µM (inactive); in [11] it was 3.7 µM (inactive); in test [12], 2.87 µM (inactive). Also, the GI50 is 5.22 µM (inactive) in test [13]; 4.02 µM (inactive) in test [14]; 5.28 µM (inactive) in test [15]; 3.78 µM (inactive) in [16]; 13.8 µM (inactive) in test [17]; 5.02 µM (inactive) in [18]. Besides, in test [19], the GI50 is 21.5 µM (inactive).

Regarding `N#Cc1[nH]c(=O)n(-c2cccc3ccccc23)c1N`, the GI50 in test [1], in [2], in test [3], in [4], in [5] and in test [6] was > 10 µM (inactive) each time. For the same compound, the GI50 in test [7], in test [8], in test [9], in test [10], in [11] and in [12] was > 10 µM (inactive) throughout. Also, the GI50 was 0.001 µM (active) in test [13]; > 10 µM (inactive) in test [14]; > 10 µM (inactive) in test [15]; > 10 µM (inactive) in [16]; > 10 µM (inactive) in test [17]; > 10 µM (inactive) in [20]. The GI50 in test [18] was > 10 µM (inactive).

As for `COc1ccc(/C=C2\N=C(N3CCOCC3)NC2=O)cc1`, the GI50 in test [1], in test [2], in [3], in test [4], in test [5] and in [6] was > 100 µM (inactive) in each case. For the same compound, the GI50 in test [7], in [8], in test [9], in test [10], in [12] and in [13] was > 100 µM (inactive) throughout. Further, the GI50 in test [14], in test [15], in test [16], in test [17], in test [20] and in test [18] was > 100 µM (inactive) each time. Besides, in test [19], the GI50 was > 100 µM (inactive).

`CCOC(=O)c1cc2c(C(=O)c3ccc([N+](=O)[O-])cc3)c(C(C)=O)ccc2[nH]1`: the GI50 in test [1] was 7.36 µM (inactive); in test [2] it was > 100 µM (inactive); in test [3] it was 45.6 µM (inactive); in test [4], > 100 µM (inactive); in test [5] it was 4.43 µM (inactive); in test [6] it was 26.9 µM (inactive). For the same compound, the GI50 was > 100 µM (inactive) in test [7]; 99.8 µM (inactive) in test [8]; 11.8 µM (inactive) in test [9]; 82.6 µM (inactive) in test [11]; 5.52 µM (inactive) in [12]; > 100 µM (inactive) in [13]. Further, the GI50 is 15.2 µM (inactive) in test [14]; 23.6 µM (inactive) in test [15]; 72.8 µM (inactive) in [16]; 22.2 µM (inactive) in test [17]; 9.51 µM (inactive) in test [20]; > 100 µM (inactive) in test [18]. Besides, the GI50 in [19] is > 100 µM (inactive).

For the compound `CC1CSC(=S)N1C(=O)N1C(=S)SCC1C` (stereo not drawn), the GI50 was 27.8 µM (inactive) in [1]; 36.6 µM (inactive) in [2]; 24.4 µM (inactive) in test [3]; 12.1 µM (inactive) in test [4]; 43.4 µM (inactive) in [5]; 18.5 µM (inactive) in [6]. For the same compound, the GI50 in test [7] is 27.8 µM (inactive); in test [8] it was 20.4 µM (inactive); in test [9], 19.6 µM (inactive); in test [10], 17.1 µM (inactive); in test [11], 24.1 µM (inactive); in [13], 18.7 µM (inactive). For the same compound, the GI50 is 12.9 µM (inactive) in [14]; 45.8 µM (inactive) in test [15]; 20.5 µM (inactive) in test [16]; 27.8 µM (inactive) in test [17]; 18.2 µM (inactive) in test [20]; 19.3 µM (inactive) in test [18]. The GI50 in test [19] was 22.8 µM (inactive).

With `Cn1c2ccccc2n2c3ncccc3c(=S)c(C#N)c12`, the GI50 is 75.7 µM (inactive) in test [1]; > 100 µM (inactive) in test [2]; > 100 µM (inactive) in test [3]; > 100 µM (inactive) in test [4]; > 100 µM (inactive) in test [5]; > 100 µM (inactive) in [6]. Besides, the GI50 is > 100 µM (inactive) in [7]; > 100 µM (inactive) in test [8]; > 100 µM (inactive) in test [9]; > 100 µM (inactive) in test [10]; 90.4 µM (inactive) in [11]; > 100 µM (inactive) in test [12]. Also, the GI50 in [13], in test [14], in test [15], in test [16], in test [20] and in test [19] was > 100 µM (inactive) in each case.

For `CC(C)=C[C@H]1C[C@H](C)[C@H]2CC[C@H](C)c3c2c1c(C)c1ncoc31`, the GI50 in test [1] was 18.5 µM (inactive); in test [2] it was 20 µM (inactive); in test [3] it was 18.6 µM (inactive); in test [4], 11.5 µM (inactive); in [6] it was 13.9 µM (inactive); in [7], 17.7 µM (inactive). Further, the GI50 in test [8] was 20.1 µM (inactive); in [9], 17.5 µM (inactive); in test [10], 13.5 µM (inactive); in [11], 18.4 µM (inactive); in test [12], 19.2 µM (inactive); in test [13], 12.2 µM (inactive). For the same compound, the GI50 in test [14] was 11.9 µM (inactive); in test [15], 17 µM (inactive); in test [16], 19.5 µM (inactive); in test [17] it was 17.4 µM (inactive); in [20], 16.8 µM (inactive); in [18], 18.4 µM (inactive). Also, the GI50 in test [19] was 17.6 µM (inactive).

`Cc1c(C#N)c2ccccc2c2nc3ccccc3n12`: the GI50 in test [1] is 37.9 µM (inactive); in test [2], 64.3 µM (inactive); in test [3] it was 24.9 µM (inactive); in test [4], > 100 µM (inactive); in test [5], 75.5 µM (inactive); in test [6] it was 31.9 µM (inactive). For the same compound, the GI50 in [7] is > 100 µM (inactive); in [8], 34.4 µM (inactive); in test [9], 67.6 µM (inactive); in test [11], 27.7 µM (inactive); in test [12] it was 38.4 µM (inactive); in test [13], > 100 µM (inactive). Besides, the GI50 in test [14] is > 100 µM (inactive); in test [15], > 100 µM (inactive); in test [16], 63.2 µM (inactive); in test [17], > 100 µM (inactive); in [20], > 100 µM (inactive); in [18] it was > 100 µM (inactive). Further, the GI50 in test [19] is 11.7 µM (inactive).

As to `CC(=O)c1c2n(n(-c3ccccc3)c1=O)C(=O)c1nccnc1-2`, the GI50 in test [1], in test [2], in [3], in test [4], in test [6] and in [7] was > 100 µM (inactive) throughout. For the same compound, the GI50 in test [8], in test [9], in test [10], in test [11], in [12] and in test [13] was > 100 µM (inactive) throughout. Further, the GI50 in [14], in test [15], in test [16], in [20], in test [18] and in [19] was > 100 µM (inactive) in each case.

For the compound `OC1c2ccccc2CCC1C(O)(C(F)(F)F)C(F)(F)F` (stereo not drawn), the GI50 in test [1], in test [2], in [3], in test [4], in test [5] and in test [6] was > 100 µM (inactive) in each case. The GI50 in [7], in test [8], in [9], in test [10], in test [11] and in [12] was > 100 µM (inactive) each time. For the same compound, the GI50 in test [13], in test [14], in test [15], in test [16], in test [17] and in test [20] was > 100 µM (inactive) throughout. For the same compound, the GI50 in test [19] was > 100 µM (inactive).
